Data from patent US4791200A, “2-substituted-4-aryl-substituted thiazoles” (Ortho Pharmaceutical Corporation, priority 1987, dated 1988).
Like-named read-outs stand apart in the source and are kept apart here.

Legend:
parietal cells = test: Isolated Parietal Cell Assay (14C-aminopyrine accumulation, histamine or dibutyryl cAMP stimulated); assay type: cell-based, rabbit; settings: Oryctolagus cuniculus
Method: The isolated parietal cell assay was conducted using the procedures of Batzri, S. et al., Biochemica et Biophysica Acta 508, 328 (1978) and Soll, A. H. Am. J. Physiol. 238, G366 (1980). Basically, parietal cells were isolated from the fundic mucosa of rabbit stomachs by a four-stage collagenase digestion process. The supernatant fractions from the last two stages of this process contain the individual parietal cells. This cell suspension was centrifuged and reconstituted in a modified Hank's buffer to contain 1-2×10^6 cells/ml. […] This accumulation was stimulated by histamine and was blocked by H2 antagonists. The cells were incubated with 0.4-0.5×10^6 cpm ^14 C-AP, with various concentrations of histamine as a stimulant, 1×10^-5 M isobutylmethylxanthine, and the test compound added in a 20 μl volume of buffer or DMSO. The flasks were incubated in a shaking water bath at 37° C. for 20 minutes. Two aliquots were then taken from each flask and cell pellets were collected by centrifugation. The pellets were solubilized with Protosol (New England Nuclear) and radioactivity determined by liquid scintillation spectrometry. Data is presented as the IC50 vhist, the concentration of compound required to inhibit ^14 C-AP accumulation in the histamine stimulated parietal cell by 50%.
When dibutyryl cAMP was used to stimulate the cells instead of histamine, a similar inhibition of ^14 C-AP accumulation was measured and the data are presented as the IC50 vcAMP, the concentration required to inhibit ^14 C-AP accumulation in the cAMP stimulated parietal cell by 50%.

[1] = test system: acid output (gastric secretion); test: Gastric Secretion (pylorus ligation, modified Shay); assay type: in vivo, male Charles River Sprague Dawley derived rats; settings: i.d. or s.c., 4 hours after ligation; for % Acid Secreted at mpK: at 20 mpK
Method: The inhibitory activity of the compounds on acid output was tested using pylorus ligation in a modification of the procedure of Shay, H. et al., Gastroenterology 26, 906 (1954). Basically, male Charles River Sprague Dawley derived rats weighing 150-300 grams were deprived of food but not water for 18-24 hours prior to use. Water was withheld during the experiment, however. The rats were weighed, anesthetized with ether and the pylorus ligated according to the method of Shay et al., supra. Treatment or vehicle control was then administered intraduodenally (i.d.) or subcutaneously (s.c.). Rats were housed two/cage and sacrificed with CO2 four hours after ligation. The stomachs were removed, rinsed, and contents emptied into a graduated centrifuge tube. The tubes were centrifuged, the volume of gastric juice recorded, and any samples obviously contaminated by feces, food or blood were eliminated. A 1 ml aliquot of gastric juice was titrated with 0.1N NaOH to a pH of 7.0-7.4. The volume of gastric juice secreted, the acid concentration, and the product of the volume times the concentration, i.e., the total amount of acid secreted, were measured.

[2] = target: T1, parietal cell H^+ K^+ ATPase (Oryctolagus cuniculus, UniProt P27112); test: Inhibition of Parietal Cell H^+ K^+ ATPase; assay type: biochemical, New Zealand white rabbits; settings: read-out: % Inhibition at Concentration; for inhibition at 100 µM: at 10^-4 M
T1 construct: determined in fundic mucosa from New Zealand white rabbits which were homogenized; from tissue; host or cells: fundic mucosa of New Zealand white rabbits, homogenized; membrane protein
Method: The activity was measured in a 1 ml incubation volume containing 50 mM Tris pH 7.4, 2 mM MgCl2, 2 mM Na2 ATP, with or without 20 mM KCl and vehicle control (dimethylsulfoxide) or test compound added in a 0.02 ml volume. Typically, 20-50 μg membrane protein was added and the tubes were preincubated with test compound for 10 minutes at 37° C. Substrate, Na2 ATP, was then added and the tubes were incubated for another 15 minutes at 37° C. The reaction was stopped by the addition of 1 ml 14% trichloroacetic acid and the samples were centrifuged at 2,000 ×g for 10 minutes. The amount of inorganic phosphate present in an aliquot of supernatant was determined. H^+ K^+ ATPase activity was determined after correcting for the basal (Mg^++ only) enzyme activity present in the membrane preparation.

[3] = 20 min, histamine stimulated, 37° C., 20 minutes, read-out: IC50 vhist (inhibition of 14C-AP accumulation in the histamine stimulated parietal cell)
[4] = dibutyryl cAMP stimulated, read-out: IC50 vcAMP (inhibition of 14C-AP accumulation in the cAMP stimulated parietal cell)

T1 sequence (P27112 2-1035 limits assumed): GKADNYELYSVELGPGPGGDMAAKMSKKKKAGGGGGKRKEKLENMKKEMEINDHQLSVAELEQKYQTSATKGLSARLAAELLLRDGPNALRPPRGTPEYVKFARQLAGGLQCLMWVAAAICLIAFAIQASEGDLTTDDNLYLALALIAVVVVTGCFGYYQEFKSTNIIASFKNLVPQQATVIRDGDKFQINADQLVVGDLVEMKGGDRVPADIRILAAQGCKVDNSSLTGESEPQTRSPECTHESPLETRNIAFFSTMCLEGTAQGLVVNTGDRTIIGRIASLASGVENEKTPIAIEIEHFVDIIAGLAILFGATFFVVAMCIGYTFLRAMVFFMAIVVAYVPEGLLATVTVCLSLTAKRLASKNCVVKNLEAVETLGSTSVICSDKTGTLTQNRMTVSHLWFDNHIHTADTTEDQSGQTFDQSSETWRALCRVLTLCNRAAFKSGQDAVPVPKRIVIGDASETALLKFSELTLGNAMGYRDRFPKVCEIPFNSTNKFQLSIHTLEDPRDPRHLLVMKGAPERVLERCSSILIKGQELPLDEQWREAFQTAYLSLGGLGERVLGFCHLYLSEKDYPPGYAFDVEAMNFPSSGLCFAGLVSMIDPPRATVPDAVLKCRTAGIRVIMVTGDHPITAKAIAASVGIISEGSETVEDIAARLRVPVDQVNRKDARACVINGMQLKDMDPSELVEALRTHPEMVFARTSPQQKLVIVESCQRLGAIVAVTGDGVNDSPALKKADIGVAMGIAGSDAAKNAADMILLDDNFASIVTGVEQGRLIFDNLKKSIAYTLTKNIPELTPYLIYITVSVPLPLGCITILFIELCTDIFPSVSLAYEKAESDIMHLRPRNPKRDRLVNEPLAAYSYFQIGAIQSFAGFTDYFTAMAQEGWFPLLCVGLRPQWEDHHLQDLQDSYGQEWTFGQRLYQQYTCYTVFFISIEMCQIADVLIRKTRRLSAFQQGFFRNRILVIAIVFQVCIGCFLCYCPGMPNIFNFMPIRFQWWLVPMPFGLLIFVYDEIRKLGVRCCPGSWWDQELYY
T1 sequence (P18597 whole entry partner): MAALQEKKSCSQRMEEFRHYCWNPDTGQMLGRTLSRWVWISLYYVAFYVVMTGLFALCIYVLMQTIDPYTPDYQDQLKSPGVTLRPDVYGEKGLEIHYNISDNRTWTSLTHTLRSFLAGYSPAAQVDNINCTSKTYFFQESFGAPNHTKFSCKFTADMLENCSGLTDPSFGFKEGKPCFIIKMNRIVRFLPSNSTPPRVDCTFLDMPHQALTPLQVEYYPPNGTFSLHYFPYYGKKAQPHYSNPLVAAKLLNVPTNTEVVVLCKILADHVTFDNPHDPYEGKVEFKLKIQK

IC50 (parietal cells; [3]) [nM] | inhibition at 100 µM [2] [%] | IC50 (parietal cells; [4]) [nM] | inhibition at 10.5 µM ([2]; at 10.5 μM) [%] | Structure (SMILES) | response vs control in vivo at 40 mg/kg ([1]; Rattus norvegicus, at 40 mpK, read-out: % Acid Secreted at mpK) [%] | % Acid Secreted at mpK [1] [%]
10000 | 36 | – | – | c1ccc(-c2nc(-c3ccc(OCCCn4cncn4)cc3)cs2)cc1 [Example 24, 4-[4-(1,2,4-Triazol-1-yl)propoxyphenyl]-2-phenylthiazole] | 83 | –
340 | 5 | 240 | – | CCCCN(CCCC)CCCOc1ccc(-c2nc(-c3ccccc3)sc2CC)cc1 [Example 25, 5-Ethyl-4-(4-dibutylaminopropoxyphenyl)-2-phenylthiazole] | – | 8
300 | 23 | 290 | – | CCCCN(CCCC)CCCOc1ccc(-c2csc(-c3ccccc3)n2)cc1C [Example 26] | – | 64
320 | – | 290 | 50 | c1ccc(-c2nc(-c3cccc(OCCCn4ccnc4)c3)cs2)cc1 [Example 27] | – | 13
